Results as given in US9303012B2, “Pyridine-2-amides useful as CB2 agonists” (Hoffmann-La Roche Inc., priority 2012, dated 2016).
pEC50: −log10 of the molar value.

How the values were obtained:
human CB2 receptors = human CB2 receptors (Homo sapiens (Human), UniProt P34972); assay: functional cAMP assay, CHO cells expressing human CB2 receptors; assay type: cell-based
Experimental: (§1) CHO cells expressing human CB1 or CB2 receptors are seeded 17-24 hours prior to the experiment 50.000 cells per well in a black 96 well plate with flat clear bottom (Corning Costar #3904) in DMEM (Invitrogen No. 31331), 1×HT supplement, with 10% fetal calf serum and incubated at 5% CO2 and 37° C. in a humidified incubator. The growth medium was exchanged with Krebs Ringer Bicarbonate buffer with 1 mM IBMX and incubated at 30° C. for 30 min. Compounds were added to a final assay volume of 100 μl and incubated for 30 min at 30° C. Using the cAMP-Nano-TRF detection kit the assay (Roche Diagnostics) was stopped by the addition of 50 μl lysis reagent (Tris, NaCl, 1.5% Triton X100, 2.5% NP40, 10% NaN3) and 50 μl detection solutions (20 μM mAb Alexa700-cAMP 1:1, and 48 μM Ruthenium-2-AHA-cAMP) and shaken for 2 h at room temperature. The time-resolved energy transfer is measured by a TRF reader (Evotec Technologies GmbH), equipped with a ND:YAG laser as excitation source. The plate is measured twice with the excitation at 355 nm and at the emission with a delay of 100 ns and a gate of 100 ns, total exposure time 10 s at 730 (bandwidth 30 nm) or 645 nm (bandwidth 75 nm), respectively. The FRET signal is calculated as follows: FRET=T730-Alexa730-P(T645-B645) with P=Ru730-B730/Ru645-B645, where T730 is the test well measured at 730 nM, T645 is the test well measured at 645 nm, B730 and B645 are the buffer controls at 730 nm and 645 nm, respectively. cAMP content is determined from the function of a standard curve spanning from 10 μM to 0.13 nM cAMP.
(§2) EC50 values were determined using Activity Base analysis (ID Business Solution, Limited). The EC50 values for a wide range of cannabinoid agonists generated from this assay were in agreement with the values published in the scientific literature.

human CB1 receptors = human CB1 receptors (Homo sapiens (Human), UniProt P21554); assay: functional cAMP assay, CHO cells expressing human CB1 receptors; assay type: cell-based
Experimental: as §1, §2

human CB1 receptors, sequence (P21554 whole entry): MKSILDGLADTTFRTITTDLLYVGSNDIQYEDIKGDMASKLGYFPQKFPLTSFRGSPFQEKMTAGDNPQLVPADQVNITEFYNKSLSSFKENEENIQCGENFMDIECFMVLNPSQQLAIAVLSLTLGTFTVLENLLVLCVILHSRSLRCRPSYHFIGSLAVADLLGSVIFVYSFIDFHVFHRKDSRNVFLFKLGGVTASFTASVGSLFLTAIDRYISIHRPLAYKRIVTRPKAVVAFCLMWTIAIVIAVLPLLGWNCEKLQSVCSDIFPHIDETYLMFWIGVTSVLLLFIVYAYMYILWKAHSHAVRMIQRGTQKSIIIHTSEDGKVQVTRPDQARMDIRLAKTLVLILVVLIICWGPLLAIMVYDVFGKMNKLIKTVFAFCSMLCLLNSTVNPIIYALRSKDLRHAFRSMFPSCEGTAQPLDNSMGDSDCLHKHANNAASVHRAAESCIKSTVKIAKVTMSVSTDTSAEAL
human CB2 receptors, sequence (P34972 whole entry): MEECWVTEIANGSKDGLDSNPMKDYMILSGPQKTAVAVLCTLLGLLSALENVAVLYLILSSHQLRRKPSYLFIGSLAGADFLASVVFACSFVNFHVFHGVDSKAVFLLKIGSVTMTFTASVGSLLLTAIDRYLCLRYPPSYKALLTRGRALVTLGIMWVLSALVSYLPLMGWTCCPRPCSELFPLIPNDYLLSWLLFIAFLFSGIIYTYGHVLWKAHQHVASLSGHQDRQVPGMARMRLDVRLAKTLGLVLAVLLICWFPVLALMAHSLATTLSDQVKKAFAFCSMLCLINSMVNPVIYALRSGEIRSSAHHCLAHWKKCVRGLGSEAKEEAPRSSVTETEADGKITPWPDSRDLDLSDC

Compound | pEC50 (human CB2 receptors) | pEC50 (human CB1 receptors)
O=C(c1ccc(N2CC(F)(F)C2)c(OCC2CC2)n1)N1CC(F)(C2CC2)C1 [Example 150, (3-Cyclopropyl-3-fluoroazetidin-1-yl)-[6-(cyclopropylmethoxy)-5-(3,3-difluoroazetidin-1-yl)pyridin-2-yl]methanone] | 8.10 | < 5.00
NC(=O)C1CSCCN1C(=O)c1ccc(C2CC2)c(OCC2CC2)n1 (stereo not drawn) [Example 89, 4-(5-Cyclopropyl-6-cyclopropylmethoxy-pyridine-2-carbonyl)-thiomorpholine-3-carboxylic acid amide] | 6.50 | < 5.00
CC1(O)CCN(C(=O)c2ccc(N3CC(F)(F)C3)c(OCC3CC3)n2)C1 (stereo not drawn) [Example 37, [6-Cyclopropylmethoxy-5-(3,3-difluoro-azetidin-1-yl)-pyridin-2-yl]-(3-hydroxy-3-methyl-pyrrolidin-1-yl)-methanone] | 6.44 | < 5.00
CCOC(=O)C1CCCN(C(=O)c2ccc(N3CC(F)(F)C3)c(OCC3CC3)n2)C1c1ccccc1 (stereo not drawn) [Example 67, 1-[6-Cyclopropylmethoxy-5-(3,3-difluoro-azetidin-1-yl)-pyridine-2-carbonyl]-2-phenyl-piperidine-3-carboxylic acid ethyl ester] | 6.43 | < 5.00
CN(C(=O)c1ccc(C(F)(F)F)c(OCC2CCCO2)n1)C(C)(C)C (stereo not drawn) [Example 15, 6-(Tetrahydro-furan-2-ylmethoxy)-5-trifluoromethyl-pyridine-2-carboxylic acid tert-butyl-methyl-amide] | 6.60 | < 5.00
CC1(C)C[C@H](C(N)=O)N(C(=O)c2ccc(N3CC(F)(F)C3)c(OCC3CC3)n2)C1 [Example 77, (+)-1-[6-Cyclopropylmethoxy-5-(3,3-difluoro-azetidin-1-yl)-pyridine-2-carbonyl]-4,4-dimethyl-pyrrolidine-2-carboxylic acid amide] | 6.71 | < 5.00
O=C(c1ccc(N2CC(F)(F)C2)c(OCC2CC2)n1)N1CC2(CC(O)CO2)C1 (stereo not drawn) [Example 83, [6-Cyclopropylmethoxy-5-(3,3-difluoro-azetidin-1-yl)-pyridin-2-yl]-(7-hydroxy-5-oxa-2-aza-spiro[3.4]oct-2-yl)-methanone] | 6.12 | < 5.00
CC1(C)CN(C(=O)c2ccc(N3CC(F)(F)C3)c(OCC3CC3)n2)CCO1 [Example 55, [6-Cyclopropylmethoxy-5-(3,3-difluoro-azetidin-1-yl)-pyridin-2-yl]-(2,2-dimethyl-morpholin-4-yl)-methanone] | 7.26 | < 5.00
NC(=O)[C@@H]1C[C@H](O)CN1C(=O)c1ccc(N2CC(F)(F)C2)c(OCC2CC2)n1 [Example 79, (2S,4S)-1-[6-Cyclopropylmethoxy-5-(3,3-difluoro-azetidin-1-yl)-pyridine-2-carbonyl]-4-hydroxy-pyrrolidine-2-carboxylic acid amide] | 6.29 | < 5.00
CN(C(=O)c1ccc(N2CC(F)(F)C2)c(OCC2CC2)n1)c1ccccc1 [Example 52, 6-Cyclopropylmethoxy-5-(3,3-difluoro-azetidin-1-yl)-pyridine-2-carboxylic acid methyl-phenyl-amide] | 6.19 | < 5.00
O=C(c1ccc(N2CC(F)(F)C2)c(OCC2CC2)n1)N1C[C@H]2COC[C@H]2C1 [Example 146, [(3aR,6aS)-1,3,3a,4,6,6a-Hexahydrofuro[3,4-c]pyrrol-5-yl]-[6-(cyclopropylmethoxy)-5-(3,3-difluoroazetidin-1-yl)pyridin-2-yl]methanone] | 6.78 | < 5.00
CC1(C)CCCN1C(=O)c1ccc(N2CC(F)(F)C2)c(OCC2CC2)n1 [Example 18, [6-Cyclopropylmethoxy-5-(3,3-difluoro-azetidin-1-yl)-pyridin-2-yl]-(2,2-dimethyl-pyrrolidin-1-yl)-methanone] | 9.22 | < 5.00
O=C(c1ccc(N2CC(F)(F)C2)c(OCC2CC2)n1)N1C[C@@H]2CC[C@H]1C2 [Example 59, (1S,4R)-2-Aza-bicyclo[2.2.1]hept-2-yl-[6-cyclopropylmethoxy-5-(3,3-difluoro-azetidin-1-yl)-pyridin-2-yl]-methanone] | 7.85 | < 5.00
CC1(C)CC(O)CCN1C(=O)c1ccc(N2CC(F)(F)C2)c(OCC2CC2)n1 (stereo not drawn) [Example 66, [6-Cyclopropylmethoxy-5-(3,3-difluoro-azetidin-1-yl)-pyridin-2-yl]-(4-hydroxy-2,2-dimethyl-piperidin-1-yl)-methanone] | 8.25 | < 5.00
NC(=O)[C@@H]1CC(F)(F)CN1C(=O)c1ccc(C2(F)COC2)c(OCC2CC2)n1 [Example 134, (2S)-1-[6-(Cyclopropylmethoxy)-5-(3-fluorooxetan-3-yl)pyridine-2-carbonyl]-4,4-difluoropyrrolidine-2-carboxamide] | 7.28 | < 5.00
CC(Oc1nc(C(=O)N(C)C(C)(C)C)ccc1C1CC1)C(F)(F)F (stereo not drawn) [Example 13, 5-Cyclopropyl-6-(2,2,2-trifluoro-1-methyl-ethoxy)-pyridine-2-carboxylic acid tert-butyl-methyl-amide] | 6.93 | < 5.00
O=C(c1ccc(C2CC2)c(Cc2ccc(F)cc2)n1)N1CCCC12CCNCC2 [Example 113, [5-Cyclopropyl-6-(4-fluoro-benzyl)-pyridin-2-yl]-(1,8-diaza-spiro[4.5]dec-1-yl)-methanone] | 6.67 | < 5.00
O=C(O)C1C2CN(C(=O)c3ccc(N4CC(F)(F)C4)c(OCC4CC4)n3)CC21 (stereo not drawn) [Example 110, 3-[6-Cyclopropylmethoxy-5-(3,3-difluoro-azetidin-1-yl)-pyridine-2-carbonyl]-3-aza-bicyclo[3.1.0]hexane-6-carboxylic acid] | 6.41 | < 5.00
Cc1cn(C)nc1N(C)C(=O)c1ccc(N2CC(F)(F)C2)c(OCC2CC2)n1 [Example 54, 6-Cyclopropylmethoxy-5-(3,3-difluoro-azetidin-1-yl)-pyridine-2-carboxylic acid (1,4-dimethyl-1H-pyrazol-3-yl)-methyl-amide] | 6.34 | < 5.00
NC(=O)[C@@H]1CCCCN1C(=O)c1ccc(C2CC2)c(OCC2CC2)n1 [Example 92, (−)-1-(5-Cyclopropyl-6-cyclopropylmethoxy-pyridine-2-carbonyl)-piperidine-2-carboxylic acid amide] | 7.00 | < 5.00
CC(C)CS(=O)(=O)c1nc(C(=O)N2CCCC2(C)C)ccc1C1CC1 [Example 30, [5-Cyclopropyl-6-(2-methyl-propane-1-sulfonyl)-pyridin-2-yl]-(2,2-dimethyl-pyrrolidin-1-yl)-methanone] | 7.46 | < 5.00
O=C(c1ccc(N2CC(F)(F)C2)c(OCC2CC2)n1)N1CCC(CO)(C(F)(F)F)C1 (stereo not drawn) [Example 137, [6-(Cyclopropylmethoxy)-5-(3,3-difluoroazetidin-1-yl)pyridin-2-yl]-[3-(hydroxymethyl)-3-(trifluoromethyl)pyrrolidin-1-yl]methanone] | 7.27 | < 5.00
NC(=O)[C@@H]1C[C@@H](F)CN1C(=O)c1ccc(C2CC2)c(OCC2CC2)n1 [Example 123, (2S,4R)-1-[5-Cyclopropyl-6-(cyclopropylmethoxy)pyridine-2-carbonyl]-4-fluoropyrrolidine-2-carboxamide] | 7.23 | < 5.00
NC(=O)[C@@H]1CC(F)(F)CN1C(=O)c1ccc(C2(O)CCC2)c(OCC2CC2)n1 [Example 129, (2S)-1-[6-(Cyclopropylmethoxy)-5-(1-hydroxycyclobutyl)pyridine-2-carbonyl]-4,4-difluoropyrrolidine-2-carboxamide] | 7.12 | < 5.00
O=C(c1ccc(N2CC(F)(F)C2)c(OCC2CC2)n1)N1CCC2(CCCO2)C1 (stereo not drawn) [Example 100, [6-Cyclopropylmethoxy-5-(3,3-difluoro-azetidin-1-yl)-pyridin-2-yl]-(1-oxa-7-aza-spiro[4.4]non-7-yl)-methanone] | 7.68 | < 5.00
CC1(C)CCN(C(=O)c2ccc(C3CC3)c(OCC3CCCO3)n2)CC1 (stereo not drawn) [Example 43, [5-Cyclopropyl-6-(tetrahydro-furan-2-ylmethoxy)-pyridin-2-yl]-(4,4-dimethyl-piperidin-1-yl)-methanone] | 7.46 | < 5.00
C[C@]1(O)C[C@@H](C(N)=O)N(C(=O)c2ccc(N3CC(F)(F)C3)c(OCC3CC3)n2)C1 [Example 140, (+)-(2S)-1-[6-(Cyclopropylmethoxy)-5-(3,3-difluoroazetidin-1-yl)pyridine-2-carbonyl]-4-hydroxy-4-methylpyrrolidine-2-carboxamide] | 7.39 | < 5.00
